Values after ≈ are worked out from the molar mass of the structure shown.
Legend:
[1] = in vitro; conditions: human, uninfected MT-4 cells
[2] = test system: HIV-1 (IIIB); experiment: microbe, parasite or virus in culture; assay type: cell-based; conditions: Human immunodeficiency virus 1, MT4, 120 h; HIV-1 (IIIB) replication in MT-4 cells, 5 days, Cell Titer Glo; read-out: MT4 EC50
[3] = physchem; conditions: FaSSIF, 23 °C, thermodynamic from solid

Row | Compound | CC50 at 5 days [1] [µM] | EC50 [2] [µM] | solubility thermodynamic at 24 h [3] [µg/mL]
1 | CC1=NO[C@@]2(CC[C@H](C)N3C[C@H]2n2cc(C(=O)NCc4ccc(F)cc4F)c(=O)c(OCOC(=O)OCC(C)(C)N(C)C(=O)OCOP(=O)(O)O)c2C3=O)C1 [Compound 36, (phosphonooxy)methyl (1-((((((3′S,5S,7′R)-10′-((2,4-difluorobenzyl)carbamoyl)-3,3′-dimethyl-1′,11′-dioxo-1′,4′,5′,11′-tetrahydro-3′H,4H,7′H-spiro[isoxazole-5,6′-[2,7]methanopyrido[1,2-a][1,4]diazonin]-12′-yl)oxy)methoxy)carbonyl)oxy)-2-methylpropan-2-yl)(methyl)carbamate] | 9.33 | 0.00122 | 5060 (≈ 6.32 mM)
2 | CC1=NO[C@@]2(CC[C@H](C)N3C[C@H]2n2cc(C(=O)NCc4ccc(F)cc4F)c(=O)c(OCOC(=O)OCC(C)(C)CN(CC(=O)O)C(=O)OCOP(=O)(O)O)c2C3=O)C1 [Compound 37, N-(3-((((((3′S,5S,7′R)-10′-((2,4-difluorobenzyl)carbamoyl)-3,3′-dimethyl-1′,11′-dioxo-1′,4′,5′,11′-tetrahydro-3′H,4H,7′H-spiro[isoxazole-5,6′-[2,7]methanopyrido[1,2-a][1,4]diazonin]-12′-yl)oxy)methoxy)carbonyl)oxy)-2,2-dimethylpropyl)-N-(((phosphonooxy)methoxy)carbonyl)glycine] | 11.1 | 0.00149 | 4980 (≈ 5.81 mM)
3 | COC1=NO[C@@]2(CC[C@H](C)N3C[C@H]2n2cc(C(=O)NCc4ccc(F)cc4F)c(=O)c(OC(=O)OC[C@H](C)OP(=O)(O)O)c2C3=O)C1 [Compound 38, (3′S,5S,7′R)-10′-((2,4-difluorobenzyl)carbamoyl)-3-methoxy-3′-methyl-1′,11′-dioxo-1′,4′,5′,11′-tetrahydro-3′H,4H,7′H-spiro[isoxazole-5,6′-[2,7]methanopyrido[1,2-a][1,4]diazonin]-12′-yl ((S)-2-(phosphonooxy)propyl) carbonate] | 17.6 | 0.00145 | 2460 (≈ 3.59 mM)
4 | CC1=NO[C@@]2(CC[C@H](C)N3C[C@H]2n2cc(C(=O)NCc4ccc(F)cc4F)c(=O)c(OC(=O)OC[C@H](C)OP(=O)(O)O)c2C3=O)C1 [Compound 39, (3′S,5S,7′R)-10′-((2,4-difluorobenzyl)carbamoyl)-3,3′-dimethyl-1′,11′-dioxo-1′,4′,5′,11′-tetrahydro-3′H,4H,7′H-spiro[isoxazole-5,6′-[2,7]methanopyrido[1,2-a][1,4]diazonin]-12′-yl ((S)-2-(phosphonooxy)propyl) carbonate] | 16.1 | 0.0016 | 2660 (≈ 3.97 mM)
5 | CC1=NO[C@@]2(CC[C@H](C)N3C[C@H]2n2cc(C(=O)NCc4ccc(F)cc4F)c(=O)c(OCOC(=O)CCCOP(=O)(O)O)c2C3=O)C1 [Compound 40, (((3′S,5S,7′R)-10′-((2,4-difluorobenzyl)carbamoyl)-3,3′-dimethyl-1′,11′-dioxo-1′,4′,5′,11′-tetrahydro-3′H,4H,7′H-spiro[isoxazole-5,6′-[2,7]methanopyrido[1,2-a][1,4]diazonin]-12′-yl)oxy)methyl 4-(phosphonooxy)butanoate] | 12.6 | 0.00126 | 5340 (≈ 7.83 mM)
6 | CC1=NO[C@@]2(CC[C@H](C)N3C[C@H]2n2cc(C(=O)NCc4ccc(F)cc4F)c(=O)c(OCOC(=O)CC(C)(C)COP(=O)(O)O)c2C3=O)C1 [Compound 41, (((3′S,5S,7′R)-10′-((2,4-difluorobenzyl)carbamoyl)-3,3′-dimethyl-1′,11′-dioxo-1′,4′,5′,11′-tetrahydro-3′H,4H,7′H-spiro[isoxazole-5,6′-[2,7]methanopyrido[1,2-a][1,4]diazonin]-12′-yl)oxy)methyl 3,3-dimethyl-4-(phosphonooxy)butanoate] | 44.3 | 0.00309 | 5600 (≈ 7.87 mM)
7 | CC1=NO[C@@]2(CC[C@H](C)N3C[C@H]2n2cc(C(=O)NCc4ccc(F)cc4F)c(=O)c(OCOC(=O)CC(C)(C)CN(CC(=O)O)C(=O)OCOP(=O)(O)O)c2C3=O)C1 [Compound 42, N-(4-((((3′S,5S,7′R)-10′-((2,4-difluorobenzyl)carbamoyl)-3,3′-dimethyl-1′,11′-dioxo-1′,4′,5′,11′-tetrahydro-3′H,4H,7′H-spiro[isoxazole-5,6′-[2,7]methanopyrido[1,2-a][1,4]diazonin]-12′-yl)oxy)methoxy)-2,2-dimethyl-4-oxobutyl)-N-(((phosphonooxy)methoxy)carbonyl)glycine] | 10.3 | 0.00106 | 5080 (≈ 6.04 mM)
8 | CC1=NO[C@@]2(CC[C@H](C)N3C[C@H]2n2cc(C(=O)NCc4ccc(F)cc4F)c(=O)c(OCOC(=O)C(C)(C)CCN(CC(=O)O)C(=O)OCOP(=O)(O)O)c2C3=O)C1 [Compound 43, N-(4-((((3′S,5S,7′R)-10′-((2,4-difluorobenzyl)carbamoyl)-3,3′-dimethyl-1′,11′-dioxo-1′,4′,5′,11′-tetrahydro-3′H,4H,7′H-spiro[isoxazole-5,6′-[2,7]methanopyrido[1,2-a][1,4]diazonin]-12′-yl)oxy)methoxy)-3,3-dimethyl-4-oxobutyl)-N-(((phosphonooxy)methoxy)carbonyl)glycine] | 8.46 | 0.00177 | 5420 (≈ 6.43 mM)
9 | COC1=NO[C@@]2(CC[C@H](C)N3C[C@H]2n2cc(C(=O)NCc4ccc(F)cc4F)c(=O)c(OCOC(=O)O[C@H](C)COP(=O)(O)O)c2C3=O)C1 [Compound 54, (((3′S,5S,7′R)-10′-((2,4-difluorobenzyl)carbamoyl)-3-methoxy-3′-methyl-1′,11′-dioxo-1′,4′,5′,11′-tetrahydro-3′H,4H,7′H-spiro[isoxazole-5,6′-[2,7]methanopyrido[1,2-a][1,4]diazonin]-12′-yl)oxy)methyl ((R)-1-(phosphonooxy)propan-2-yl) carbonate] | 15.5 | 0.00432 | 4660 (≈ 6.51 mM)
10 | CC1=NO[C@@]2(CC[C@H](C)N3C[C@H]2n2cc(C(=O)NCc4ccc(F)cc4F)c(=O)c(OCOC(=O)O[C@@H](C)[C@@H](C)OP(=O)(O)O)c2C3=O)C1 [Compound 57, (((3′S,5S,7′R)-10′-((2,4-difluorobenzyl)carbamoyl)-3,3′-dimethyl-1′,11′-dioxo-1′,4′,5′,11′-tetrahydro-3′H,4H,7′H-spiro[isoxazole-5,6′-[2,7]methanopyrido[1,2-a][1,4]diazonin]-12′-yl)oxy)methyl ((2S,3R)-3-(phosphonooxy)butan-2-yl) carbonate] | 19.9 | 0.00232 | 4630 (≈ 6.5 mM)
11 | CC1=NO[C@@]2(CC[C@H](C)N3C[C@H]2n2cc(C(=O)NCc4ccc(F)cc4F)c(=O)c(OCOC(=O)O[C@H](C)[C@H](C)OP(=O)(O)O)c2C3=O)C1 [Compound 58, (((3′S,5S,7′R)-10′-((2,4-difluorobenzyl)carbamoyl)-3,3′-dimethyl-1′,11′-dioxo-1′,4′,5′,11′-tetrahydro-3′H,4H,7′H-spiro[isoxazole-5,6′-[2,7]methanopyrido[1,2-a][1,4]diazonin]-12′-yl)oxy)methyl ((2R,3S)-3-(phosphonooxy)butan-2-yl) carbonate] | 24.2 | 0.00211 | 4860 (≈ 6.82 mM)
